The text below walks through data of patent publication US9340590B2 (priority 2011, dated 2016).

The target in one assay is hNav1.3 (Homo sapiens, UniProt Q9NY46). Description: cell-based. The settings on record: for IC50: IonWorks Quattro, read-out: IWQ Use Nav1.3; for Nav1.7/Nav1.3: Nav1.7 over Nav1.3. For orientation: In patch-clamp work, channel activity is measured electrically.
A further assay has as its target hNav1.7 (Homo sapiens, UniProt Q15858). Nature of the assay: cell-based. It counts as cell-based. Conditions: for IC50: IonWorks Quattro, read-out: IWQ Use Nav1.7.
The mark [1] stands for this setting: ratio of IWQ Use values, Nav1.4 over Nav1.3.
Setting [2] is: ratio of IWQ Use values, Nav1.4 over Nav1.7.

Like-named read-outs stand apart in the source and are kept apart here. Positions of bridges follow the written chain, without caps; N, C: chain ends. Residues, ends and D or L forms follow the SMILES beside them.

Chain of hNav1.3 (Q9NY46 whole entry, looked up): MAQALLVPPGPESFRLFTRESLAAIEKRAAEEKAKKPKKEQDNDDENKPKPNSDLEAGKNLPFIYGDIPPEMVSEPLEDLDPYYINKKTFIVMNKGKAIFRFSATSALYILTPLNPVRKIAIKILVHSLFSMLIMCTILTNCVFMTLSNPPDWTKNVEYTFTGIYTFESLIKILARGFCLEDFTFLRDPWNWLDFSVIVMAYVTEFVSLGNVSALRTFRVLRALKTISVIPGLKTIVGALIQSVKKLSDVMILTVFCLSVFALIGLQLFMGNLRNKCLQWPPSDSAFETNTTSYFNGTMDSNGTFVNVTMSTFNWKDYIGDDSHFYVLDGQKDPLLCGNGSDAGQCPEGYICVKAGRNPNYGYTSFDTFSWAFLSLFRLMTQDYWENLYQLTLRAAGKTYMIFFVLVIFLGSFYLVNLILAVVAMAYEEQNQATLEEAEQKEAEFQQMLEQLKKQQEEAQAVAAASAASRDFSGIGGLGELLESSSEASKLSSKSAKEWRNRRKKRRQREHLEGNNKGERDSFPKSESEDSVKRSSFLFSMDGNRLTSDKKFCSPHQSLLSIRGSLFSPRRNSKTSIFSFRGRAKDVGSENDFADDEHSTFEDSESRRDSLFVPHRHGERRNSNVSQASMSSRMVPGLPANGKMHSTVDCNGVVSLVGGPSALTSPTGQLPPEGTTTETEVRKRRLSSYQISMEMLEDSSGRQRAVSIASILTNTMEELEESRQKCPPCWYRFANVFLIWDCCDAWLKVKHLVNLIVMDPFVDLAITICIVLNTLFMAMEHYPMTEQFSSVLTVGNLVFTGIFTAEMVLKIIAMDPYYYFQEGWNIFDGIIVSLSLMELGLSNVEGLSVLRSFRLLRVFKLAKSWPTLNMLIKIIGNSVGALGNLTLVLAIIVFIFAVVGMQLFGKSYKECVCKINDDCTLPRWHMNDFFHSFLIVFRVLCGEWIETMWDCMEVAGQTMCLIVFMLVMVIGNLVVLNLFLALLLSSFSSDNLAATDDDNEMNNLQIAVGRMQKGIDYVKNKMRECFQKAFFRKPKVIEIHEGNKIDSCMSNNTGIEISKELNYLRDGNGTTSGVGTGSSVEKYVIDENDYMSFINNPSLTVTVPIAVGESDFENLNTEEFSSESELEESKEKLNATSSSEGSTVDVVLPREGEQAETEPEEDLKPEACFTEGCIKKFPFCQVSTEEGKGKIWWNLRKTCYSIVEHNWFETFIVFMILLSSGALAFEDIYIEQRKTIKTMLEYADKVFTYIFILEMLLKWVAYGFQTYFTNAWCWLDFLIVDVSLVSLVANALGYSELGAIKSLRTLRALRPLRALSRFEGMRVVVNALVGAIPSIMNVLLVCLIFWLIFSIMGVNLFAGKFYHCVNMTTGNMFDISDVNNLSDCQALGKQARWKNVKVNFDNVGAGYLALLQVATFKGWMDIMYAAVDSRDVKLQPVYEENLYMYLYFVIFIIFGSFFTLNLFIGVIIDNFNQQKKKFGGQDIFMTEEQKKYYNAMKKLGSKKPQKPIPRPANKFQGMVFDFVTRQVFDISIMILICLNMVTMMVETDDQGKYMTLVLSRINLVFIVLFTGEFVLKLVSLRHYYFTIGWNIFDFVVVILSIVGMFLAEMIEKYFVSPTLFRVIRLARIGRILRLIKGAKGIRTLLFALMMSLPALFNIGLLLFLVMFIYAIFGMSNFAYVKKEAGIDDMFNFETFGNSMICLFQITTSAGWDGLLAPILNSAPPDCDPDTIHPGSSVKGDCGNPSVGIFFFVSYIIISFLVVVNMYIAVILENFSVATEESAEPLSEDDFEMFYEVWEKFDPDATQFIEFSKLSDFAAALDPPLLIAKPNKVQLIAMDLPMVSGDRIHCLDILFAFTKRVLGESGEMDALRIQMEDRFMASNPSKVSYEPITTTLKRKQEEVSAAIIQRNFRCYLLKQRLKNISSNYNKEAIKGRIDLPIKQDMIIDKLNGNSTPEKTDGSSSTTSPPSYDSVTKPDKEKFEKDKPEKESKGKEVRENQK
Chain of hNav1.7 (Q15858 whole entry, looked up): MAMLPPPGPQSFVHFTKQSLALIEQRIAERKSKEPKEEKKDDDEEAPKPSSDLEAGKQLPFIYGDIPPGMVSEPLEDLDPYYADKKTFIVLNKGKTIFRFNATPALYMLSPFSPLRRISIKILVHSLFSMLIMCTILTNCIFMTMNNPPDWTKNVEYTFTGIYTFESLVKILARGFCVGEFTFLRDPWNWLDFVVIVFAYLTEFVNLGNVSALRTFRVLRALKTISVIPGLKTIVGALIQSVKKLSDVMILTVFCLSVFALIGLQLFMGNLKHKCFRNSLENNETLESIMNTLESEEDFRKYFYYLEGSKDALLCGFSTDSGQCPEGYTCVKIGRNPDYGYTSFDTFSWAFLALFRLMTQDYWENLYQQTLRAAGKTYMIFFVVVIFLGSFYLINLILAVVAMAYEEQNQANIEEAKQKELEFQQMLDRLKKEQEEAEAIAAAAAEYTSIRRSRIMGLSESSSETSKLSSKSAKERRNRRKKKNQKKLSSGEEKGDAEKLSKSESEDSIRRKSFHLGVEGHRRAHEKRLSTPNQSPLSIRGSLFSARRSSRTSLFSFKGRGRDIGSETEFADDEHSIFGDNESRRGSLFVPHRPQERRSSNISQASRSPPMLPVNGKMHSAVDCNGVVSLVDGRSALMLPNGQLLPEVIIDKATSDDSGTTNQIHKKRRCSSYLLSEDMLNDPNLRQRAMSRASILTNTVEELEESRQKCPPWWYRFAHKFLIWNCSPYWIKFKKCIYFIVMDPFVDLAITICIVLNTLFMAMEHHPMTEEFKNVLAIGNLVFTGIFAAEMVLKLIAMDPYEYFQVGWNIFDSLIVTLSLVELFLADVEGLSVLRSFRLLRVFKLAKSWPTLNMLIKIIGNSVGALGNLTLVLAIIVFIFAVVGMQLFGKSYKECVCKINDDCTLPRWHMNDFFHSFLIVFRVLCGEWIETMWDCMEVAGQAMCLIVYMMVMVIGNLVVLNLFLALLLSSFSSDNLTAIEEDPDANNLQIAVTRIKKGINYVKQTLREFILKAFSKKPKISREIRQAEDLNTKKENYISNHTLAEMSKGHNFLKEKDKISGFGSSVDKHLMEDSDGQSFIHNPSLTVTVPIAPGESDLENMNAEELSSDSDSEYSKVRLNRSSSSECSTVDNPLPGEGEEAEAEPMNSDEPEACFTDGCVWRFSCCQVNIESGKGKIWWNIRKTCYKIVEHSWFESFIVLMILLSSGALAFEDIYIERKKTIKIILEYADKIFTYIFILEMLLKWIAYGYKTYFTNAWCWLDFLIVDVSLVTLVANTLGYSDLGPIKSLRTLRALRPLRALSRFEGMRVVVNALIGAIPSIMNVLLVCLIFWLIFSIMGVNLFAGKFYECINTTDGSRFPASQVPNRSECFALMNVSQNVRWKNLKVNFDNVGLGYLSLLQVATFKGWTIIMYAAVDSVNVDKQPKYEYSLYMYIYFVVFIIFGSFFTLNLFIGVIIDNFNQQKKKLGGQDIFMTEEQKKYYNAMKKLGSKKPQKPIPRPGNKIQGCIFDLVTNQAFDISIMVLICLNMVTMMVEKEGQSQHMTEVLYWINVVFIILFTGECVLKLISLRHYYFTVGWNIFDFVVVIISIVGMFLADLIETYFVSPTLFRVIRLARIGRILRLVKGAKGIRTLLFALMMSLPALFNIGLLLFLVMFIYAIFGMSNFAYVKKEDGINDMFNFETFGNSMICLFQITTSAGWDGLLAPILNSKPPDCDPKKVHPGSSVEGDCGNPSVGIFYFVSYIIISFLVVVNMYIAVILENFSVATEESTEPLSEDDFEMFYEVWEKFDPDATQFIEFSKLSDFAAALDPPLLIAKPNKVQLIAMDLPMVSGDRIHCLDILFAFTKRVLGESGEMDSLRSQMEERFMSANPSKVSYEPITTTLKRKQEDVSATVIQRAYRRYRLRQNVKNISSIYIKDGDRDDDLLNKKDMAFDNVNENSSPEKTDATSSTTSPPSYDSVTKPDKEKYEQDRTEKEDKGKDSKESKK

In the case of `CC[C@H](C)[C@@H]1NC(=O)[C@@H]2CSSC[C@@H]3NC(=O)[C@H](C(C)C)NC(=O)[C@H](CC(C)C)NC(=O)[C@H](CC(N)=O)NC(=O)[C@@H]4CCCN4C(=O)[C@H](CCCNC(=N)N)NC(=O)[C@H](CSSC[C@H](NC(=O)[C@@H](N)CC(=O)O)C(=O)N[C@@H](CC(C)C)C(=O)NCC(=O)N[C@@H](Cc4ccccc4)C(=O)N[C@@H](CCSC)C(=O)N[C@@H](CCCNC(=N)N)C(=O)N[C@@H](CCCCN)C(=O)N2)NC(=O)[C@H](CSSC[C@@H](C(=O)N[C@@H](CCCCN)C(=O)N[C@@H](CCC(=O)O)C(=O)N[C@H](C(=O)N[C@@H](Cc2ccccc2)C(N)=O)C(C)C)NC(=O)[C@H](Cc2c[nH]c4ccccc24)NC(=O)[C@H](CCCCN)NC(=O)[C@H](Cc2cnc[nH]2)NC(=O)[C@H]([C@@H](C)O)NC(=O)[C@H](CCCNC(=N)N)NC(=O)[C@H](CO)NC3=O)NC(=O)[C@H](CCCCN)NC(=O)[C@H](CC(=O)O)NC(=O)[C@H](CC(N)=O)NC(=O)[C@H](CC(=O)O)NC(=O)[C@@H]2CCCN2C1=O` [compound 32] (H-DCLGFMRKCIPDNDKCCRPNLVCSRTHKWCKEVF-NH2; disulfide 2-17, 9-23, 16-30), the IC50 on hNav1.3 (Table 25, use, […]) was determined as 9140 nM; at hNav1.7 (Table 25, use, […]), 13900 nM.

In turn, `CC[C@H](C)[C@@H]1NC(=O)[C@@H]2CSSC[C@@H]3NC(=O)[C@H](C(C)C)NC(=O)[C@H](CC(C)C)NC(=O)[C@H](CC(N)=O)NC(=O)[C@@H]4CCCN4C(=O)[C@H](CCCNC(=N)N)NC(=O)[C@H](CSSC[C@H](NC(=O)[C@@H](N)CC(=O)O)C(=O)N[C@@H](CC(C)C)C(=O)NCC(=O)N[C@@H](Cc4ccccc4)C(=O)N[C@@H](CCSC)C(=O)N[C@@H](CCCNC(=N)N)C(=O)N[C@@H](CCCCN)C(=O)N2)NC(=O)[C@H](CSSC[C@@H](C(=O)N[C@@H](CCCCN)C(=O)N[C@@H](Cc2ccc(O)cc2)C(=O)N[C@H](C(=O)N[C@@H](Cc2ccccc2)C(N)=O)C(C)C)NC(=O)[C@H](CCCCN)NC(=O)[C@H](CCCCN)NC(=O)[C@H](Cc2c[nH]cn2)NC(=O)[C@H]([C@@H](C)O)NC(=O)[C@H](CCCNC(=N)N)NC(=O)[C@H](CO)NC3=O)NC(=O)[C@H](CCCCN)NC(=O)[C@H](CC(=O)O)NC(=O)[C@H](CC(N)=O)NC(=O)[C@H](CC(=O)O)NC(=O)[C@@H]2CCCN2C1=O` [compound 56] (H-DCLGFMRKCIPDNDKCCRPNLVCSRTHKKCKYVF-NH2; disulfide 2-17, 9-23, 16-30) returned a Nav1.4/Nav1.3 on hNav1.3 of 1.1. In addition, on hNav1.7, the Nav1.4/Nav1.7 was 1.4 and the Nav1.7/Nav1.3 was determined as 0.8.

As for `CC[C@H](C)[C@@H]1NC(=O)[C@@H]2CSSC[C@@H]3NC(=O)[C@H](C(C)C)NC(=O)[C@H](CC(C)C)NC(=O)[C@H](CC(N)=O)NC(=O)[C@@H]4CCCN4C(=O)[C@H](CCCNC(=N)N)NC(=O)[C@H](CSSC[C@H](NC(=O)[C@@H](N)CC(=O)O)C(=O)N[C@@H](CC(C)C)C(=O)NCC(=O)N[C@@H](Cc4ccccc4)C(=O)N[C@@H](CCSC)C(=O)N[C@@H](CCCNC(=N)N)C(=O)N[C@@H](CCCCN)C(=O)N2)NC(=O)[C@H](CSSC[C@@H](C(=O)N[C@@H](CCCCN)C(=O)N[C@@H](Cc2ccc(O)cc2)C(=O)N[C@H](C(=O)N[C@@H](Cc2ccccc2)C(N)=O)C(C)C)NC(=O)[C@H](Cc2c[nH]c4ccccc24)NC(=O)[C@H](CCCCN)NC(=O)[C@H](Cc2c[nH]c4ccccc24)NC(=O)[C@H]([C@@H](C)O)NC(=O)[C@H](CCCNC(=N)N)NC(=O)[C@H](CO)NC3=O)NC(=O)[C@H](CCCCN)NC(=O)[C@H](CC(=O)O)NC(=O)[C@H](CC(N)=O)NC(=O)[C@H](CC(=O)O)NC(=O)[C@@H]2CCCN2C1=O` [compound 84] (H-DCLGFMRKCIPDNDKCCRPNLVCSRTWKWCKYVF-NH2; disulfide 2-17, 9-23, 16-30), the IC50 on hNav1.3 (Table 23, use, […]) was 590 nM; at hNav1.7 (Table 23, use, […]), 320 nM.

In the case of `CC[C@H](C)[C@@H]1NC(=O)[C@@H]2CSSC[C@@H]3NC(=O)[C@H](C(C)C)NC(=O)[C@H](CC(C)C)NC(=O)[C@H](CC(N)=O)NC(=O)[C@@H]4CCCN4C(=O)[C@H](CCCNC(=N)N)NC(=O)[C@H](CSSC[C@H](NC(=O)[C@@H](N)CC(=O)O)C(=O)N[C@@H](CC(C)C)C(=O)NCC(=O)N[C@@H](Cc4ccccc4)C(=O)N[C@@H](CCSC)C(=O)N[C@@H](CCCNC(=N)N)C(=O)N[C@@H](CCCCN)C(=O)N2)NC(=O)[C@H](CSSC[C@@H](C(=O)N[C@@H](CCCCN)C(=O)N[C@@H](Cc2ccc(O)cc2)C(=O)N[C@H](C(=O)N[C@@H](Cc2ccccc2)C(N)=O)C(C)C)NC(=O)[C@H](Cc2c[nH]c4ccccc24)NC(=O)[C@H](CCCCN)NC(=O)[C@H](Cc2cnc[nH]2)NC(=O)[C@H](Cc2cnc[nH]2)NC(=O)[C@H](CCCNC(=N)N)NC(=O)[C@H](CO)NC3=O)NC(=O)[C@H](CCCCN)NC(=O)[C@H](CC(=O)O)NC(=O)[C@H](CC(N)=O)NC(=O)[C@H](CC(=O)O)NC(=O)[C@@H]2CCCN2C1=O` [compound 337] (H-DCLGFMRKCIPDNDKCCRPNLVCSRHHKWCKYVF-NH2; disulfide 2-17, 9-23, 16-30), the IC50 was found to be 80 nM on hNav1.3 (Table 22, use, […]) and 100 nM at hNav1.7 (Table 22, use, […]).

With `CC[C@H](C)[C@@H]1NC(=O)[C@@H]2CSSC[C@@H]3NC(=O)[C@H](C(C)C)NC(=O)[C@H](CC(C)C)NC(=O)[C@H](CC(N)=O)NC(=O)[C@@H]4CCCN4C(=O)[C@H](CCCNC(=N)N)NC(=O)[C@H](CSSC[C@H](NC(=O)[C@@H](N)CC(=O)O)C(=O)N[C@@H](CC(C)C)C(=O)NCC(=O)NC(C)(C)C(=O)N[C@@H](CC(C)C)C(=O)N[C@@H](CCCNC(=N)N)C(=O)N[C@@H](CCCCN)C(=O)N2)NC(=O)[C@H](CSSC[C@@H](C(=O)N[C@@H](CCCCN)C(=O)N[C@@H](Cc2ccc(O)cc2)C(=O)N[C@H](C(=O)N[C@@H](Cc2ccccc2)C(N)=O)C(C)C)NC(=O)[C@H](Cc2c[nH]c4ccccc24)NC(=O)[C@H](CCCCN)NC(=O)[C@H](Cc2c[nH]cn2)NC(=O)[C@H]([C@@H](C)O)NC(=O)[C@H](CCCNC(=N)N)NC(=O)[C@H](CO)NC3=O)NC(=O)[C@H](CCCCN)NC(=O)[C@H](CC(=O)O)NC(=O)[C@H](CC(N)=O)NC(=O)[C@H](CC(=O)O)NC(=O)[C@@H]2CCCN2C1=O` [compound 635], the IC50 at hNav1.3 (use-dependent protocol, hNav1.3) turned out to be 380 nM; on hNav1.7 (use-dependent protocol, hNav1.7), 230 nM.

Turning to `CC[C@H](C)[C@@H]1NC(=O)[C@@H]2CSSC[C@@H]3NC(=O)[C@H](C(C)C)NC(=O)[C@H](CC(C)C)NC(=O)[C@H](CC(N)=O)NC(=O)[C@@H]4CCCN4C(=O)[C@H](CCCNC(=N)N)NC(=O)[C@H](CSSC[C@H](NC(=O)[C@@H](N)CC(=O)O)C(=O)N[C@@H](CC(C)C)C(=O)NCC(=O)N[C@@H](Cc4ccc(Cl)c(Cl)c4)C(=O)N[C@@H](CCSC)C(=O)N[C@@H](CCCNC(=N)N)C(=O)N[C@@H](CCCCN)C(=O)N2)NC(=O)[C@H](CSSC[C@@H](C(=O)N[C@@H](CCCCN)C(=O)N[C@@H](Cc2ccc(O)cc2)C(=O)N[C@H](C(=O)N[C@@H](Cc2ccccc2)C(N)=O)C(C)C)NC(=O)[C@H](Cc2c[nH]c4ccccc24)NC(=O)[C@H](CCCCN)NC(=O)[C@H](Cc2c[nH]cn2)NC(=O)[C@H]([C@@H](C)O)NC(=O)[C@H](CCCNC(=N)N)NC(=O)[C@H](CO)NC3=O)NC(=O)[C@H](CCCCN)NC(=O)[C@H](CC(=O)O)NC(=O)[C@H](CC(N)=O)NC(=O)[C@H](CC(=O)O)NC(=O)[C@@H]2CCCN2C1=O` [compound 653], the Nav1.4/Nav1.3 on hNav1.3 (setting [1]) is 17.7. Further, the Nav1.7/Nav1.3 at hNav1.3 (ratio of IWQ Use values) is on record as 2.0. Also, the Nav1.4/Nav1.7 on hNav1.7 (setting [2]) turned out to be 8.8.

Consider `CC[C@H](C)[C@@H]1NC(=O)[C@@H]2CSSC[C@@H]3NC(=O)[C@H](C(C)C)NC(=O)[C@H](CC(C)C)NC(=O)[C@H](CC(N)=O)NC(=O)[C@@H]4CCCN4C(=O)[C@H](CCCNC(=N)N)NC(=O)[C@H](CSSC[C@H](NC(=O)[C@@H](N)CC(=O)O)C(=O)N[C@@H](CC(C)C)C(=O)NCC(=O)N[C@@H](Cc4ccc(C(F)(F)F)cc4)C(=O)N[C@@H](CCSC)C(=O)N[C@@H](CCCNC(=N)N)C(=O)N[C@@H](CCCCN)C(=O)N2)NC(=O)[C@H](CSSC[C@@H](C(=O)N[C@@H](CCCCN)C(=O)N[C@@H](Cc2ccc(O)cc2)C(=O)N[C@H](C(=O)N[C@@H](Cc2ccccc2)C(N)=O)C(C)C)NC(=O)[C@H](Cc2c[nH]c4ccccc24)NC(=O)[C@H](CCCCN)NC(=O)[C@H](Cc2c[nH]cn2)NC(=O)[C@H]([C@@H](C)O)NC(=O)[C@H](CCCNC(=N)N)NC(=O)[C@H](CO)NC3=O)NC(=O)[C@H](CCCCN)NC(=O)[C@H](CC(=O)O)NC(=O)[C@H](CC(N)=O)NC(=O)[C@H](CC(=O)O)NC(=O)[C@@H]2CCCN2C1=O` [compound 654], for which, on hNav1.3 (setting [1]), the Nav1.4/Nav1.3 stood at 18.4. Further, the Nav1.7/Nav1.3 at hNav1.3 (ratio of IWQ Use values) came to 4.4. The Nav1.4/Nav1.7 at hNav1.7 (setting [2]) is reported as 4.1.

On to `CC[C@H](C)[C@@H]1NC(=O)[C@@H]2CSSC[C@@H]3NC(=O)[C@H](C(C)C)NC(=O)[C@H](CC(C)C)NC(=O)[C@H](CC(N)=O)NC(=O)[C@@H]4CCCN4C(=O)[C@H](CCCNC(=N)N)NC(=O)[C@H](CSSC[C@H](NC(=O)[C@@H](N)CC(=O)O)C(=O)N[C@@H](CC(C)C)C(=O)NCC(=O)N[C@@H](Cc4ccc(F)cc4)C(=O)N[C@@H](CCSC)C(=O)N[C@@H](CCCNC(=N)N)C(=O)N[C@@H](CCCCN)C(=O)N2)NC(=O)[C@H](CSSC[C@@H](C(=O)N[C@@H](CCCCN)C(=O)N[C@@H](Cc2ccc(O)cc2)C(=O)N[C@H](C(=O)N[C@@H](Cc2ccccc2)C(N)=O)C(C)C)NC(=O)[C@H](Cc2c[nH]c4ccccc24)NC(=O)[C@H](CCCCN)NC(=O)[C@H](Cc2c[nH]cn2)NC(=O)[C@H]([C@@H](C)O)NC(=O)[C@H](CCCNC(=N)N)NC(=O)[C@H](CO)NC3=O)NC(=O)[C@H](CCCCN)NC(=O)[C@H](CC(=O)O)NC(=O)[C@H](CC(N)=O)NC(=O)[C@H](CC(=O)O)NC(=O)[C@@H]2CCCN2C1=O` [compound 655], for which, at hNav1.3 (setting [1]), the Nav1.4/Nav1.3 came to 26.6. The Nav1.7/Nav1.3 on hNav1.3 (ratio of IWQ Use values) was 3.8. For the same compound, the Nav1.4/Nav1.7 at hNav1.7 (setting [2]) came out at 7.1.
